SMILES strings stand for the structures.

For the test, the target named is T1, Seed linoleate 13S-lipoxygenase-1 (Glycine max, UniProt P08170).
T1 sequence (P08170 whole entry): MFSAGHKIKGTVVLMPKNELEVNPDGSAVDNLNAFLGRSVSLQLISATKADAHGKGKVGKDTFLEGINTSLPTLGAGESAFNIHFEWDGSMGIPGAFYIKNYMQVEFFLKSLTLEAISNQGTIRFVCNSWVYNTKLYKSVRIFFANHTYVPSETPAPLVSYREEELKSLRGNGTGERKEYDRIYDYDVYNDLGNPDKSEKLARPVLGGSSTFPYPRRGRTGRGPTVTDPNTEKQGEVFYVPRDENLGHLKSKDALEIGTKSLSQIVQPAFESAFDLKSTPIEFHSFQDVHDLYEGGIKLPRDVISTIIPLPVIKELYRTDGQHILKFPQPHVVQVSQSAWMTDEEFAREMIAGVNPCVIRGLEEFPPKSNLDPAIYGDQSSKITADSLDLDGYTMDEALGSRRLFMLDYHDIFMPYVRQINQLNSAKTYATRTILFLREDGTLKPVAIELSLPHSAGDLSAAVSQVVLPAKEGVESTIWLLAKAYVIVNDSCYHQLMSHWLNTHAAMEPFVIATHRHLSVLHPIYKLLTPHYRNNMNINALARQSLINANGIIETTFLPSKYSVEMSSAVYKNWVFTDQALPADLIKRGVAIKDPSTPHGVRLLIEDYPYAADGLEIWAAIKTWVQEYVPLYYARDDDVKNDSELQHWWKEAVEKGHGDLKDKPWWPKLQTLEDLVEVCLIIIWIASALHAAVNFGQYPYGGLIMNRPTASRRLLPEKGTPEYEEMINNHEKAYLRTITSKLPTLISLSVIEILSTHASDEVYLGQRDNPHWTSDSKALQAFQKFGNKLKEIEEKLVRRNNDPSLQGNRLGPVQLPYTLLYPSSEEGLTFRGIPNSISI
The test is described as follows: Inhibitory activity against Soybean type 1 Lipoxygenase (SBLO) was determined.
For `CCCCCCCCC1OC1CCCCCCCC(=O)O` (configuration not stated), the Ki is greater than 100 µM. Under `CCCCCC1OC1CCCCCCCCCCC(=O)O` (configuration not stated) stands greater than 100 µM; under `CCCCCC1SC1C/C=C/CCCCCCCC(=O)O` (configuration not stated), 2 µM; under `CCCCC/C=C/CC1OC1CCCCCCCC(=O)O` (configuration not stated), greater than 100 µM. `CCCCCCCCC1SC1CCCCCCCC(=O)O` (configuration not stated): the Ki was greater than 100 µM. To `CCCCCC1SC1CCCCCCCCCCC(=O)O` (configuration not stated) belongs 4 µM. To `CCCCC/C=C/CC1SC1CCCCCCCC(=O)O` (configuration not stated) belongs greater than 100 µM.

As usually defined, the Ki is the dissociation constant of the complex between target and ligand, obtained from inhibition or displacement.

Source of the values: ChEMBL document CHEMBL1126362, “Episulfide inhibitors of lipoxygenase” (Bioorg Med Chem Lett, 1992).
